In publication PMC7667639, “Optimized Opioid-Neurotensin Multitarget Peptides: From Design to Structure–Activity Relationship Studies” (Journal of Medicinal Chemistry, 2020):
Read-outs that look alike come from different tables or passages of the source. Values belong to the compound of their own block, whether it stands above or below them. Numbered stars: 1 amine (or outer) side, 2 acyl side, 3 side chain; on linkers, the order of the positions; unused ones are H or OH. Square brackets hold non-standard residues; d marks the D form. Peptide text beside a SMILES is read from it. (6-OH)Tic = 6-hydroxy-1,2,3,4-tetrahydroisoquinoline-3-carboxylic acid, O=C([C@@H]1Cc2cc(O[*:3])ccc2CN1[*:1])[*:2]; X1 = O=C1[C@@H](N[*:1])Cc2ccccc2CN1CCC(=O)[*:2]; X2 = O=C([C@@H]1Cc2cc(O)ccc2CN1[*:1])[*:2]; Dmt = Cc1cc(O)cc(C)c1C[C@H](N)C(=O)O; Tle = CC(C)(C)[C@H](N)C(=O)O; β3hK = NCCCC[C@H](N)CC(=O)O

Key:
human MOR = molecular target: T1, human MOR (Homo sapiens, UniProt P35372); assay type: biochemical; settings: in words
T1 construct: host or cells: CHO (CHO-hMOR)

NTS2 = tested on: NTS2; design: method as in PMID 27359371; settings: in words; cited from earlier work
human NTS2 receptor [1] = molecular target: T2, human NTS2 receptor (Homo sapiens, UniProt O95665); settings: cited from earlier work; for Ki: human receptor, 1321N1 membranes, read-out: affinity Ki NTS2; for selectivity NTS2/NTS1: ratio of Ki values
T2 construct: host or cells: 1321N1 (human astrocytoma)

human NTS1 [2] = molecular target: T3, human NTS1 (Homo sapiens, UniProt P30989); design: host or cells: CHO-K1; settings: CHO membranes, read-out: affinity Ki NTS1; cited from earlier work
human DOR = molecular target: T4, human DOR (Homo sapiens, UniProt P41143); assay: [35S]GTPγS binding assay, CHO-hDOR membranes; assay type: biochemical; settings: in words
T4 construct: host or cells: CHO (CHO-hDOR)

human KOR = molecular target: T5, human KOR (Homo sapiens, UniProt P41145); assay: [35S]GTPγS binding assay, CHO-hKOR membranes; assay type: biochemical; settings: in words
T5 construct: host or cells: CHO (CHO-hKOR)

[3] = molecular target: human neurotensin 1 receptor (human) (UniProt P30989)
[4] = molecular target: human δ-opioid receptor (human) (UniProt P41143)
[5] = molecular target: human κ-opioid receptor (human) (UniProt P41145)
[6] = molecular target: human μ-opioid receptor (human) (UniProt P35372)
[7] = molecular target: human δ-opioid receptor (human) (UniProt P41143); assay: radioligand binding; competition on membranes (15–20 μg) of CHO cells stably expressing hMOR, hDOR or hKOR; radioligands [3H]DAMGO (hMOR), [3H]diprenorphine (hDOR), [3H]U69,593 (hKOR); 50 mM Tris-HCl pH 7.4, 60 min, 25 °C, filtration; Ki by Cheng and Prusoff
[8] = molecular target: human κ-opioid receptor (human) (UniProt P41145); assay: as above
[9] = molecular target: human μ-opioid receptor (human) (UniProt P35372); assay: as above
[10] = molecular target: human neurotensin 1 receptor (human) (UniProt P30989); assay: radioligand binding; competition with [125I]-NT on membranes (15–20 μg) of CHO cells (hNTS1) or 1321N1 astrocytoma cells (hNTS2); binding buffer 10 mM Tris, 1 mM EDTA pH 7.5, peptides diluted with 50 mM Tris-HCl and 0.2% BSA; 60 min, ambient temperature, filtration; Ki by Cheng and Prusoff
[11] = molecular target: human neurotensin 2 receptor (human) (UniProt O95665); assay: as above
[12] = cited from earlier work
human NTS2 receptor [13] = molecular target: T2, human NTS2 receptor; assay: Competitive radioligand binding ([125I]-NT), 1321N1-hNTS2 membranes; settings: ratio of Ki values NTS1 vs NTS2
human NTS1 [14] = molecular target: T3, human NTS1; assay: cell-based; design: expressed in transfected cells; host or cells: HEK293 (transfected with PEI)

Compound: Cc1cc(O)cc(C)c1C[C@H](NC(=O)[C@@H]1CCCN1C(=O)[C@H](CCCNC(=N)N)NC(=O)[C@H](CCCNC(=N)N)NC(=O)CCN1Cc2ccccc2C[C@H](NC(=O)[C@@H](CCCNC(=N)N)NC(=O)[C@@H](N)Cc2c(C)cc(O)cc2C)C1=O)C(=O)N[C@H](C(=O)N[C@@H](CC(C)C)C(=O)O)C(C)(C)C [compound 5, H-Dmt-D-Arg-Aba-β-Ala-Arg-Arg-Pro-Dmt-Tle-Leu-OH] (H-[Dmt][dR][X1]RRP[Dmt][Tle]L-OH)
functional profile at the MOR (G protein activation) (human MOR): very potent agonists

Compound: COc1cccc(OC)c1-c1cc(C(=O)NC2(C(=O)O)C3CC4CC(C3)CC2C4)nn1-c1ccc(C(=O)N(C)CCCN(C)C)cc1C(C)C (stereo not shown) [SR142948a]
activity at NTS2 in the FLIPR assay (NTS2): full agonist activity

Compound: H-Arg-Arg-Pro-Dmt-Tle-Leu-OH [compound 14]
Ki (human NTS2 receptor [1]): 3 ± 2 nM
selectivity NTS2/NTS1 (human NTS2 receptor [1]): 4.5
Ki (human NTS1 [2]): 13.4 ± 2 nM

Compound: COc1cccc(OC)c1-c1cc(C(=O)NC2(C(=O)O)C3CC4CC(C3)CC2C4)nn1-c1ccnc2cc(Cl)ccc12 (stereo not shown) [SR48692]
activity at NTS2 in the FLIPR assay (NTS2): full agonist activity

Compound: Cc1cc(O)cc(C)c1C[C@H](N)C(=O)N[C@H](CCCNC(=N)N)C(=O)N[C@H]1Cc2ccccc2CN(CCC(=O)N[C@@H](CCCNC(=N)N)C(=O)N[C@@H](CCCNC(=N)N)C(=O)N2CCC[C@H]2C(=O)N[C@@H](Cc2ccc(O)cc2)C(=O)N[C@H](C(=O)N[C@@H](CC(C)C)C(=O)O)C(C)(C)C)C1=O [peptide 3, H-Dmt-D-Arg-Aba-β-Ala-Arg-Arg-Pro-Tyr-Tle-Leu-OH] (H-[Dmt][dR][X1]RRPY[Tle]L-OH)
functional profile at the MOR (G protein activation) (human MOR): very potent agonists

Compound: H-β^3hArg-Arg-Pro-Dmt-Tle-Leu-OH [peptide 13]
Ki (human NTS2 receptor [1]): 0.11 ± 0.07 nM
selectivity NTS2/NTS1 (human NTS2 receptor [1]): 20.1
Ki (human NTS1 [2]): 2.3 ± 0.2 nM

Compound: Cc1cc(O)cc(C)c1C[C@H](N)C(=O)N[C@H](CCCCN)C(=O)N[C@@H](Cc1ccccc1)C(=O)N[C@@H](Cc1ccccc1)C(=O)N[C@@H](CCCCN)C(=O)N[C@@H](CCCCN)C(=O)N1CCC[C@H]1C(=O)N[C@@H](Cc1ccccc1)C(=O)N[C@H](C(=O)N[C@@H](CC(C)C)C(=O)O)C(C)(C)C [PK20] (H-[Dmt][dK]FFKKPF[Tle]L-OH)
functional profile at the MOR (G protein activation) (human MOR): potent full agonist
functional profile at the DOR (human DOR): weak partial agonist
functional profile at the KOR (human KOR): relatively potent KOR partial agonist

NTS1 Gαq activation (BRET), EC50 [3]: 19.1 nM
NTS1 Gαq activation (BRET), Emax (% of NT(8-13)) [3]: 101%
DOR [^35S]GTPγS binding, EC50 [4]: 479 nM
DOR [^35S]GTPγS binding, Emax (% of DPDPE) [4]: 78%
KOR [^35S]GTPγS binding, EC50 [5]: 47.1 nM
KOR [^35S]GTPγS binding, Emax (% of U69,593) [5]: 65%
MOR [^35S]GTPγS binding, EC50 [6]: 13.3 nM
MOR [^35S]GTPγS binding, Emax (% of DAMGO) [6]: 91%
MOR β-arrestin-2 recruitment, EC50 [6]: 956 nM
MOR β-arrestin-2 recruitment, Emax (% of DAMGO) [6]: 69%
Ki [7]: 46.4 nM
Ki [8]: 33.5 nM
Ki [9]: 4.13 nM
Ki [10]: 188 nM
Ki [11]: 29.5 nM
Compound: PK20 (peptide)

Compound: H-Arg-Arg-Pro-m-Tyr-Tle-Leu-OH [compound 16]
Ki (human NTS2 receptor [1]): 24 ± 18 nM
selectivity NTS2/NTS1 (human NTS2 receptor [1]): 4
Ki (human NTS1 [2]): 93 ± 22 nM

Compound: H-Arg-Arg-Pro-(6-OH)Tic-Tle-Leu-OH [compound 15]
selectivity NTS2/NTS1 (human NTS2 receptor [1]): 50

Compound: CC(C)C[C@H](NC(=O)[C@@H](NC(=O)[C@@H]1Cc2cc(O)ccc2CN1C(=O)[C@@H]1CCCN1C(=O)[C@H](CCCCN)NC(=O)C[C@@H](N)CCCCN)C(C)(C)C)C(=O)O [peptide 2] (H-[β3hK]KP[X2][Tle]L-OH)
plasma stability t1/2 [12]: > 24 h

Compound: H-Arg-Arg-Pro-(6-OH)Tic-Tle-Leu-OH (H-RRP[(6-OH)Tic][Tle]L-OH; SMILES CC(C)C[C@H](NC(=O)[C@@H](NC(=O)[C@@H]1Cc2cc(O)ccc2CN1C(=O)[C@@H]1CCCN1C(=O)[C@H](CCCNC(=N)N)NC(=O)[C@@H](N)CCCNC(=N)N)C(C)(C)C)C(=O)O) [compound 15]
Ki (human NTS2 receptor [1]): 132 ± 47 nM
Ki (human NTS1 [2]): 6680 ± 3700 nM

Compound: Cc1cc(O)cc(C)c1C[C@H](N)C(=O)N[C@H](CCCNC(=N)N)C(=O)N[C@H]1Cc2ccccc2CN(CCC(=O)N[C@@H](CCCNC(=N)N)C(=O)N[C@@H](CCCNC(=N)N)C(=O)N2CCC[C@H]2C(=O)N2Cc3ccc(O)cc3C[C@H]2C(=O)N[C@H](C(=O)N[C@@H](CC(C)C)C(=O)O)C(C)(C)C)C1=O [peptide 9, H-Dmt-D-Arg-Aba-β-Ala-Arg-Arg-Pro-(6-OH)Tic-Tle-Leu-OH] (H-[Dmt][dR][X1]RRP[X2][Tle]L-OH)
selectivity NTS2/NTS1 (human NTS2 receptor [13]): > 2700
functional profile at the MOR (G protein activation) (human MOR): very potent agonists
EC50 (human NTS1 [14]): ~2000 nM
fold decrease in NTS1 activity (EC50) compared to NT(8-13) (human NTS1 [14]): 13,000 fold
fold decrease in NTS1 activity (EC50) compared to 1 (human NTS1 [14]; vs 1): ca. 1000 fold
